Test [1] deals with T1, DNA topoisomerase 1 (Homo sapiens) (UniProt P11387).
T1 sequence (whole entry): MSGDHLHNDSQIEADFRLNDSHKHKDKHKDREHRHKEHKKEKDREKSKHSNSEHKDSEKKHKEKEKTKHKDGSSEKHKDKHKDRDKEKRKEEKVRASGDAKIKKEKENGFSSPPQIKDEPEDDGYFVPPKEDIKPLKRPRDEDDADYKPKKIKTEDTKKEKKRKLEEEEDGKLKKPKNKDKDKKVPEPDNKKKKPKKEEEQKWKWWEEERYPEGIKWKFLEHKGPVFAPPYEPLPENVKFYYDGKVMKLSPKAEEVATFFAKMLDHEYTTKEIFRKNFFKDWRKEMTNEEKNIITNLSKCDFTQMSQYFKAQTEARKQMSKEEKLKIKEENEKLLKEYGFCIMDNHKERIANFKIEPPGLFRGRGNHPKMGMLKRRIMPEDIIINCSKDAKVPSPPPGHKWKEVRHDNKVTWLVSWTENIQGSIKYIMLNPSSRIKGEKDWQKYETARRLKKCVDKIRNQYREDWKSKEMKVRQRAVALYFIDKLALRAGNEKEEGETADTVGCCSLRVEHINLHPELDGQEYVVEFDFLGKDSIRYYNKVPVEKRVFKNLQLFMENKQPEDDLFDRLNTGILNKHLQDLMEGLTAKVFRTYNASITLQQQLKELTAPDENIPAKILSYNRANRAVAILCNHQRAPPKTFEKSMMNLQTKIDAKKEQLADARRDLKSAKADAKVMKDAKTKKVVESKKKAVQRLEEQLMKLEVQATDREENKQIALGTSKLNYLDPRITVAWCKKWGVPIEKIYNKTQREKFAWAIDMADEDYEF
The test can be described thus: Inhibition of recombinant human topoisomerase 1 assessed as relaxation of supercoiled plasmid DNA pBR322 at 20 uM incubated for 30 mins by agarose gel electrophoresis.

In test [2] the target is T1, DNA topoisomerase 1 (Homo sapiens). Nature of the test: Inhibition of recombinant human topoisomerase 1 assessed as relaxation of supercoiled plasmid DNA pBR322 at 100 uM incubated for 30 mins by agarose gel electrophoresis.
The next test has as its system T47D. The test can be described thus: Cytotoxicity against human T47D cells measured after 2 days by MTT assay. Type of test: functional, cell-based. Conditions: 48 h.
In test [3] the target is DNA topoisomerase 2-alpha (Homo sapiens) (UniProt P11388). The test can be described thus: Inhibition of recombinant human topoisomerase 2alpha assessed as relaxation of supercoiled plasmid DNA pBR322 at 100 uM incubated for 30 mins by agarose gel electrophoresis.
A further test deals with HeLa. The test can be described thus: Cytotoxicity against human HeLa cells measured after 2 days by MTT assay. Type of test: functional, cell-based. Conditions: 48 h. A general note: Tetrazolium dyes change colour on reduction, which living cells bring about.
The target of test [4] is T1, DNA topoisomerase 1 (Homo sapiens). Nature of the test: Potency index, ratio of compound activity to CPT activity for inhibition of recombinant human topoisomerase 1 at 20 uM.
For test [5] the target is unchanged. The test can be described thus: Potency index, ratio of compound activity to CPT activity for inhibition of recombinant human topoisomerase 1 at 100 uM.
Another test relates to HCT-15. Nature of the test: Cytotoxicity against human HCT15 cells measured after 2 days by MTT assay. Type of test: functional, cell-based. Conditions: HCT-15, 48 h.
Test [6] addresses DNA topoisomerase 2-alpha (Homo sapiens) (UniProt P11388). The test can be described thus: Potency index, ratio of compound activity to etoposide activity for inhibition of recombinant human topoisomerase 2alpha at 100 uM.

Chain of DNA topoisomerase 2-alpha (Homo sapiens) (P11388 whole entry): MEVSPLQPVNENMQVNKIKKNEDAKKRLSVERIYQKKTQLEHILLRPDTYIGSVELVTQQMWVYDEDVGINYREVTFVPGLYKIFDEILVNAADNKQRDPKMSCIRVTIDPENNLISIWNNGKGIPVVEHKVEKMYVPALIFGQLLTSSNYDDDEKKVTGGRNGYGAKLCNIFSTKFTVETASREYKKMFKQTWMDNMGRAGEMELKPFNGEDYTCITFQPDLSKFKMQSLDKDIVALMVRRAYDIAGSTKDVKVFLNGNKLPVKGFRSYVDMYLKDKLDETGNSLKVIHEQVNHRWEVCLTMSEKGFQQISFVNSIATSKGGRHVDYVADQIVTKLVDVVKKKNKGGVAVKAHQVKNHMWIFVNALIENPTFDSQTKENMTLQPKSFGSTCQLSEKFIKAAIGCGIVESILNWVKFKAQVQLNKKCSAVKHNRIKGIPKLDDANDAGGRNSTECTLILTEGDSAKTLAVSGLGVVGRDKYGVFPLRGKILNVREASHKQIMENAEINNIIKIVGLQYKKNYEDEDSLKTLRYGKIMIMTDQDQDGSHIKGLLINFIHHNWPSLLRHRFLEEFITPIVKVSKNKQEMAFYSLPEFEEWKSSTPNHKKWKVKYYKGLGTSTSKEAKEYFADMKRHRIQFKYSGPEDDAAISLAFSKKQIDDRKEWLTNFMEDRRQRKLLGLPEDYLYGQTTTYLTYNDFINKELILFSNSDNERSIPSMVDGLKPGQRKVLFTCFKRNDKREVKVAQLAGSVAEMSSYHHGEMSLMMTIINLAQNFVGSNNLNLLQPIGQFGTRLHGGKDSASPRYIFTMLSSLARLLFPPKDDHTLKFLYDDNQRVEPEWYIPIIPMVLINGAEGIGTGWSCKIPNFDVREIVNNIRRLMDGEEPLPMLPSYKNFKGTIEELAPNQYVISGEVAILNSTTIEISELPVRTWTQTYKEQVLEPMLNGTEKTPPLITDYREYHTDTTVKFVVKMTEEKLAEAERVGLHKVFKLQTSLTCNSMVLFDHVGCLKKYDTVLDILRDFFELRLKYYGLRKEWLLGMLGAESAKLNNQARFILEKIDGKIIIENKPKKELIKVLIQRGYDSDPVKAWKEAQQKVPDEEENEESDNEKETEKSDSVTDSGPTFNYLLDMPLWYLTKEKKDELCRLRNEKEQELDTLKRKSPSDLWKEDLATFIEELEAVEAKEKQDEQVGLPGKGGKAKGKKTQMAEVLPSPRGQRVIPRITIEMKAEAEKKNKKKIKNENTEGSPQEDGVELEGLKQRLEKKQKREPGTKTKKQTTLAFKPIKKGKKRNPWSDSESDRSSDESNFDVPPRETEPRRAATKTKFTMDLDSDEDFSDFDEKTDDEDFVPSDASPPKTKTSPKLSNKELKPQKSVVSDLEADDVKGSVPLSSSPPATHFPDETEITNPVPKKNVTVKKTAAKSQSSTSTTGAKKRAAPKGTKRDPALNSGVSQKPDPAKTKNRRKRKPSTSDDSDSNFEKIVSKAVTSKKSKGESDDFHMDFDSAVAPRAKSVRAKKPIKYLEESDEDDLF

In the case of `Cc1ccc2c(=O)[nH]c(-c3cccc(C(F)(F)F)c3)nc2c1`, the inhibition came to 93.6% in [1], 100% in [2] and 0% in test [3]. In addition, the IC50 in the test on T47D, in the test with HeLa and with HCT-15 was more than 50 µM throughout. Besides, the Ratio in test [4] amounted to 3.04; in test [5], 1.29.
Take `CCN(CC)c1ccc2nc(-c3ccccc3C(F)(F)F)[nH]c(=O)c2c1`: the values for the inhibition in test [1], in test [2] and in [3] were 13.3%, 81.7% and 9.4%, respectively. In addition, the results for the Ratio in test [6], in [4] and in test [5] were 0.11, 0.49 and 0.98, respectively. In addition, the IC50 in the test on T47D is 2.55 µM; in the test on HeLa, 0.1 µM; in the test on HCT-15 it was 0.28 µM.
`Cc1ccc2nc(-c3ccccc3C)[nH]c(=O)c2c1`: the inhibition in test [2] and in test [3] was 0% each time. Moreover, the values for the IC50 in the test on T47D, in the test on HeLa and in the test on HCT-15 were more than 50 µM, 4.58 µM and 11.7 µM, respectively.
For the compound `CN(C)c1ccc2nc(-c3cccc4ccccc34)[nH]c(=O)c2c1`, the values for the inhibition in test [1], in test [2] and in test [3] were 2.4%, 100% and 0%, respectively. The IC50 with T47D is more than 50 µM; with HeLa, 0.05 µM; in the test on HCT-15, 0.46 µM. Moreover, the Ratio in test [4] was 0.14; in test [5] it was 1.24.
Regarding `Cc1ccc2c(=O)[nH]c(-c3ccccc3OC(F)(F)F)nc2c1`, the inhibition was determined as 100% in [1], 100% in [2] and 0% in test [3]. Besides, the figures for the IC50 with T47D, in the test with HeLa and in the test with HCT-15 were more than 50 µM, 18.3 µM and 15.9 µM, respectively. Also, the Ratio in test [4] is 3.25; in test [5], 1.29.
As for `Cc1ccc2nc(-c3ccccc3OC(F)(F)F)[nH]c(=O)c2c1`, the inhibition is 0% in test [1], 66.9% in test [2] and 5.47% in test [3]. The Ratio in [6] was 0.06; in test [5], 0.83. For the same compound, the IC50 in the test with T47D was more than 50 µM; in the test on HeLa, 0.85 µM; with HCT-15, 2.79 µM.
In the case of `Cc1ccc2c(=O)[nH]c(-c3cccc(OC(F)(F)F)c3)nc2c1`, the values for the inhibition in [1], in test [2] and in [3] were 0%, 77.2% and 0%, respectively. Further, the IC50 in the test with T47D, with HeLa and with HCT-15 was more than 50 µM in each case. The Ratio in [5] amounted to 0.93.
As for `Cc1ccc2nc(-c3ccccc3N(C)C)[nH]c(=O)c2c1`, the inhibition came to 21.1% in test [1], 82.9% in test [2] and 7.2% in [3]. Besides, the figures for the Ratio in [6], in test [4] and in test [5] were 0.09, 1.22 and 1.03, respectively. Also, the values for the IC50 in the test with T47D, in the test on HeLa and in the test with HCT-15 were 26.7 µM, 14 µM and more than 50 µM, respectively.
Turning to `Cc1ccc2c(=O)[nH]c(-c3cccc4ccccc34)nc2c1`, the values for the inhibition in test [1], in [2] and in test [3] were 60.1%, 100% and 0%, respectively. Also, the half-inhibitory concentration (IC50) with T47D is more than 50 µM; in the test on HeLa it was more than 50 µM; in the test on HCT-15 it was 23.3 µM. The Ratio in test [4] is 1.95; in test [5], 1.29.
Consider `COc1cc([C@@H]2c3cc4c(cc3[C@@H](O[C@@H]3O[C@@H]5CO[C@@H](C)O[C@H]5[C@H](O)[C@H]3O)[C@H]3COC(=O)[C@H]23)OCO4)cc(OC)c1O` [ETOPOSIDE], for which the figures for the IC50 with T47D, in the test on HeLa and with HCT-15 were 9.28 µM, 7.6 µM and 5.54 µM, respectively.
For `CCN(CC)c1ccc2nc(-c3cccc4ccccc34)[nH]c(=O)c2c1`, the results for the inhibition in test [1], in [2] and in test [3] were 25.5%, 90.4% and 0%, respectively. For the same compound, the 50% inhibitory concentration (IC50) was determined as 2.69 µM with T47D, 0.004 µM with HeLa and 3.21 µM in the test with HCT-15. Moreover, the results for the Ratio in test [4] and in [5] were 0.83 and 1.17, respectively.
As for `CC[C@@]1(O)C(=O)OCc2c1cc1n(c2=O)Cc2cc3ccccc3nc2-1` [CAMPTOTHECIN], the results for the half-maximal inhibitory concentration (IC50) in the test with T47D, with HeLa and in the test on HCT-15 were 1.62 µM, 1.59 µM and 6.08 µM, respectively.
For the compound `O=c1[nH]c(-c2cccc3ccccc23)nc2ccc(N3CCCCC3)cc12`, the inhibition came out at 33.4% in test [1], 100% in test [2] and 0% in test [3]. Also, the IC50 is more than 50 µM in the test on T47D, 0.33 µM in the test with HeLa and 2.24 µM with HCT-15. Besides, the results for the Ratio in test [4] and in test [5] were 1.94 and 1.24, respectively.
Regarding `Cc1ccc2nc(-c3ccccc3F)[nH]c(=O)c2c1`, the inhibition stood at 36.3% in [1], 67.9% in test [2] and 0% in test [3]. In addition, the IC50 with T47D, with HeLa and in the test with HCT-15 was more than 50 µM each time. Besides, the Ratio was 2.11 in [4] and 0.84 in test [5].
With `COc1cccc(-c2nc3ccc(N4CCCCC4)cc3c(=O)[nH]2)c1OC`, the inhibition in test [1] came to 0%; in test [2], 80.9%; in [3], 0%. Moreover, the values for the IC50 with T47D, in the test with HeLa and in the test with HCT-15 were 10.4 µM, 8.19 µM and 24.8 µM, respectively. Further, the Ratio in test [5] was determined as 0.97.
Consider `Cc1ccc2c(=O)[nH]c(-c3cccc(F)c3)nc2c1`, for which the values for the inhibition in test [1], in test [2] and in [3] were 4.3%, 77.5% and 9.6%, respectively. Besides, the Ratio in test [6] stood at 0.12; in [4] it was 0.16; in [5] it was 0.93. Moreover, the figures for the IC50 with T47D, with HeLa and with HCT-15 were more than 50 µM, more than 50 µM and 14.4 µM, respectively.
Consider `COc1cccc2c1C(=O)c1c(O)c3c(c(O)c1C2=O)C[C@@](O)(C(=O)CO)C[C@@H]3O[C@H]1C[C@H](N)[C@H](O)[C@H](C)O1` [DOXORUBICIN], for which the figures for the concentration for half-maximal inhibition (IC50) in the test on T47D, with HeLa and in the test with HCT-15 were 1.9 µM, 0.52 µM and 3.33 µM, respectively.
On to `Cc1ccc2c(=O)[nH]c(-c3ccccc3F)nc2c1`, for which the inhibition in test [1] was found to be 0%; in [2], 81.2%; in [3], 0%. Moreover, the IC50 in the test with T47D was more than 50 µM; in the test on HeLa, 0.83 µM; in the test with HCT-15, 10.3 µM. Further, in [5], the Ratio is 0.98.
On to `Cc1ccc2nc(-c3cccc(F)c3)[nH]c(=O)c2c1`, for which the inhibition in [1] came out at 0.2%; in test [2], 82.9%; in [3], 0%. Moreover, the IC50 in the test on T47D, with HeLa and in the test with HCT-15 was more than 50 µM in each case. The Ratio stood at 0.01 in test [4] and 1.03 in test [5].
For `Cc1ccc2nc(-c3cccc4ccccc34)[nH]c(=O)c2c1`, the results for the inhibition in [2] and in [3] were 4.1% and 5.5%, respectively. Moreover, the Ratio was found to be 0.06 in test [6] and 0.05 in [5]. Besides, the figures for the IC50 in the test on T47D, in the test with HeLa and in the test with HCT-15 were more than 50 µM, 5.36 µM and more than 50 µM, respectively.
Turning to `Cc1ccc2nc(-c3cccc(OC(F)(F)F)c3)[nH]c(=O)c2c1`, the results for the inhibition in test [1], in [2] and in test [3] were 0%, 98.6% and 0%, respectively. Also, the IC50 with T47D, with HeLa and in the test on HCT-15 was more than 50 µM throughout. Further, in test [5], the Ratio stood at 1.39.
As for `CCN(CC)c1ccc2nc(-c3ccccc3N(C)C)[nH]c(=O)c2c1`, the inhibition was found to be 0% in test [1], 82.1% in [2] and 0% in [3]. Besides, the results for the IC50 in the test with T47D, in the test with HeLa and in the test on HCT-15 were 2.21 µM, 0.07 µM and 4.2 µM, respectively. The Ratio in [5] was 0.99.
Turning to `Cc1cccc(-c2nc3ccc(C)cc3c(=O)[nH]2)c1`, the figures for the inhibition in [1], in [2] and in test [3] were 12.7%, 75.7% and 4.6%, respectively. The values for the Ratio in test [6], in [4] and in test [5] were 0.05, 0.39 and 1.06, respectively. In addition, the IC50 with T47D, in the test with HeLa and with HCT-15 was more than 50 µM in each case.
For the compound `CCN(CC)c1ccc2nc(-c3ccccc3OC(F)(F)F)[nH]c(=O)c2c1`, the inhibition in [1] was 0%; in test [2] it was 81.2%; in test [3] it was 0%. Besides, the IC50 with T47D was 1.67 µM; in the test on HeLa, 0.04 µM; in the test on HCT-15, 1.71 µM. Besides, the Ratio in test [5] was 0.98.

What is called inhibition is the percentage by which the read-out fell short of the control. In general, IC50 refers to the concentration that gives 50% inhibition.

The values are drawn from ChEMBL document CHEMBL3632492, “Substituted 2-arylquinazolinones: Design, synthesis, and evaluation of cytotoxicity and inhibition of topoisomerases” (Eur J Med Chem, 2015).
